The results in this text go back to paper PMC7412561, “Conjugates of Chitosan and Calcium Alginate with Oligoproline and Oligohydroxyproline Derivatives for Potential Use in Regenerative Medicine” (Materials, 2020).

Non-standard residues stand in square brackets, D forms with d. Hyp = O=C(O)[C@@H]1C[C@@H](O)CN1

The first data set concerns endothelial cell line EA.hy 926. The data set is described as follows: MTT test (cell metabolic activity / cytotoxicity). The format is cell-based. Conditions: EA.h 926 cells incubated with peptide for 1 day and for 7 days; concentration range 10 μM to 10 mM; compared with Control− (medium only); five replicates, average. As to the method: The endothelial cell line EA.hy 926 (ATCC, Manassas, VA, USA) was used. The MTT test was performed using endothelial cells of the EA.hy 926 line. The extracts (2 mg/mL) were incubated in DMEM (Corning) for 48 h at 37 °C. Cells were seeded into a 96-well plate with 1 × 10^4 cells per well and grown under standard conditions (37 °C, 5% CO2 in humid air). The next day, the medium was replaced with extracts. After 24 h of treatment, the culture medium was removed and replaced with the MTT solution (1 mg/mL, Sigma Aldrich, Poznan, Poland) and incubated for 2 h in an incubator. The MTT solution was then decanted and 100 µL of isopropanol (Sigma Aldrich, Poznan, Poland) was added to each well. Absorbance was measured at 570 nm and 650 nm for the reference using a microplate reader (Victor X4 Perkin Elmer, PerkinElmer, Inc. Waltham, MA, USA). Cells cultured for 48 h in DMEM were used as a negative control. As a positive control were used cells incubated for 24 h, followed by the addition of DMSO, which were then cultured for another 24 h. Three samples of each type were tested and the results were presented as a percentage of the negative control with the standard deviation. Statistical significance was assessed using one-way ANOVA analysis of variance. Values for which the value **p < 0.001, ** p < 0.01, *p < 0.05 were considered statistically significant.
All the peptides were also assessed in terms of their cytotoxicity against the endothelial cell line EA.h 926. No cytotoxicity was observed (Figure 6) both for incubating cells in the presence of peptides 1–5 for 1 day (Figure 6a) and for 7 days (Figure 6b). Cells cultured in medium without the addition of any substances or harmful agents were used as the Control^− (K^−), while cells treated with DMSO on the second day of incubation were used as the Control^+ (K^+). The dimethyl sulfoxide (DMSO) was added to a final concentration of 5%. An MTT test was used to assess the cytotoxicity of peptides 1–5. […] The tests were performed in the concentration range of 10 μM and 10 mM.
Figure 6 Results of cell metabolic activity by using 3-(4,5-dimethylthiazol-2-yl)-2,5-diphenyltetrazolium bromide (MTT test) of the endothelial cell line EA.h 926 cultured in the presence of peptides 1–5, panel (a)—cells incubated in the presence of peptides for 1 day, panel (b)—cells incubated in the presence of peptides for 7 days. Cytotoxicity tests were performed in five replicates. The presented results are average values. Statistical significance was assessed using one-way ANOVA analysis of variance. Values for which the value **p < 0.001, ** p < 0.01, *p < 0.05 were considered statistically significant (see Supplementary Materials, Figure S1).
In the final stage of the research, we studied the effects of covalently linked conjugates of peptides 2‒5 with chitosan and alginate (Figure 10) on the endothelial cell line EA.hy 926. Experiments were performed for incubation of cells for 1 day (Figure 10a) and 7 days (Figure 10b) to check the effect of alginate and chitosan conjugates with peptides 2‒5 both in the short and long term, which is important from the point of view of the usefulness of materials used in regenerative medicine. As the Control^‒ (K^‒) were again used cells cultured in the medium without the addition of any substances or any harmful factors, while as the Control^+ (K^+) were used cell cultures killed by adding DMSO on the second day of incubation. DMSO was added to give a 5% final concentration in the culture medium. Unmodified chitosan and calcium alginate were also studied. […] Cell viability relative to the […] was reduced by more than 75%. The adverse effect of calcium alginate on the endothelial cell line EA.hy 926 may result from the exchange of Ca^2+ ions from the polysaccharide matrix for monovalent Na^+ and/or K^+ ions, causing the release of large amounts of Ca^2+ ions into the culture medium. This in turn may adversely affect the endothelial cells. […]
For orientation: Tetrazolium dyes change colour on reduction, which living cells bring about.
“H-G[Hyp]PA[Hyp]P-OH (SMILES C[C@H](NC(=O)[C@@H]1CCCN1C(=O)[C@@H]1C[C@@H](O)CN1C(=O)CN)C(=O)N1C[C@H](O)C[C@H]1C(=O)N1CCC[C@H]1C(=O)O) [Peptide 1, model collagen fragment, reference compound]”: the “cytotoxic effect of peptides (MTT test)” value is given as “No cytotoxic effect”.
Consider H-(Hyp)6-OH [Peptide 4], for which the “cytotoxic effect of peptides (MTT test)” value is on record as “No cytotoxic effect”.
Same read-out and setting: in the case of H-(Hyp)9-OH [Peptide 5] it was “No cytotoxic effect”; in that of H-(Pro)6-OH [Peptide 2], “No cytotoxic effect”; in that of H-(Pro)9-OH [Peptide 3], “No cytotoxic effect”.

Still in this data set, the particulars now being: EA.h 926 cells; 10 mM peptide.
H-(Pro)9-OH [Peptide 3]: the “cytotoxicity at the highest tested concentration (MTT)” value is given as “comparable toxicity to that at 100 μM”.
